# Target: hMC2 receptor (Homo sapiens, UniProt Q01718)
# Test: hMC2 membrane binding assay ([125I]ACTH (1-39) Tyr23, SPA)
# Set-up: scale not given here
# Settings: crude hMC2R membranes from CRE-bla-CHO-K1 cells expressing hMC2 receptor and hMRAP; [125I]ACTH (1-39) Tyr23 0.2 nM; 1.5 hours at room temperature; read-out: MC2R binding potency
# Summary of the method: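 CRE-bla-CHO-K1 membranes co-expressing hMC2 receptor and hMRAP, preincubated with WGA PVT SPA beads in pH 7.4 HEPES/MgCl2/CaCl2/0.2% BSA buffer. Compounds (typically 0–10,000 nM final) compete with 0.2 nM [125I]ACTH(1-39) Tyr23 for 1.5 h at room temperature. SPA counts give Ki by non-linear regression.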
# Chain of hMC2 receptor (Q01718 whole entry): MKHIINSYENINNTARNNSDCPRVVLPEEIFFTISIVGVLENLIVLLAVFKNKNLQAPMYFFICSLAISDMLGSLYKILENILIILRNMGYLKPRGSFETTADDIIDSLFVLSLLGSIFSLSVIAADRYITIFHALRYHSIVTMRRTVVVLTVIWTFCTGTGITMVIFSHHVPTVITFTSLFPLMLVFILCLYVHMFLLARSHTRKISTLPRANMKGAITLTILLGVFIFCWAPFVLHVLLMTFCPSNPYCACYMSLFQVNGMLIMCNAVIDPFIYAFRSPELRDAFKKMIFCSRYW
# Chain of hMC2 receptor (Q8TCY5 whole entry partner): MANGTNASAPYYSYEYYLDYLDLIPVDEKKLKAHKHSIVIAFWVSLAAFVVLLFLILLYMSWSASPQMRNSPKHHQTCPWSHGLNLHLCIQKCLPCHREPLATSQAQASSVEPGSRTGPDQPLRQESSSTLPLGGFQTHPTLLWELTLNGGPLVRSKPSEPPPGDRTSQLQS
row,Ki,SMILES
1,< 10 nM,"CCOc1ncccc1-c1ccc(N2CCN(C(=O)c3ccc(F)cc3C(F)(F)F)C[C@H]2CC)c(CNCCNC)c1 [Compound 2-21, {[5-(2-ethoxypyridin-3-yl)-2-[(2R)-2-ethyl-4-[4-fluoro-2-(trifluoromethyl)benzoyl]piperazin-1-yl]phenyl]methyl}[2-(methylamino)ethyl]amine]"
2,< 10 nM,"CCOc1ncccc1-c1ccc(N2CCN(C(=O)c3ccc(Cl)cc3C(F)(F)F)C[C@H]2CC)c(C(=O)NCCc2cnc[nH]2)c1 [Compound 1-84, 2-[(2R)-4-[4-chloro-2-(trifluoromethyl)benzoyl]-2-ethylpiperazin-1-yl]-5-(2-ethoxypyridin-3-yl)-N-[2-(1H-imidazol-5-yl)ethyl]benzamide]"
3,< 10 nM,"CCOc1ncccc1-c1ccc(N2CCN(C(=O)N3CCc4cc(F)cc(C#N)c43)C[C@H]2CC)c(C(=O)NC2CN(C)C2)n1 [Compound 1-422, 5-[(2R)-4-(7-cyano-5-fluoro-2,3-dihydro-1H-indole-1-carbonyl)-2-ethylpiperazin-1-yl]-2′-ethoxy-N-(1-methylazetidin-3-yl)-[2,3′-bipyridine]-6-carboxamide]"
4,< 10 nM,"CCOc1ncccc1-c1ccc(N2CCN(C(=O)c3ccc(Cl)cc3C(F)(F)F)C[C@H]2CC)c(C(=O)N[C@H]2CNC[C@H]2F)n1 [Compound 1-275, 5-[(2R)-4-[4-chloro-2-(trifluoromethyl)benzoyl]-2-ethylpiperazin-1-yl]-2′-ethoxy-N-[(3S,4R)-4-fluoropyrrolidin-3-yl]-[2,3′-bipyridine]-6-carboxamide]"
5,< 10 nM,"CCOc1ncccc1-c1ccc(N2CCN(C(=O)c3ccc(Cl)cc3N3CCC(N)CC3)C[C@H]2CC)c(C(=O)NCCN)c1 [Compound 1-52, N-(2-aminoethyl)-2-[(2R)-4-[2-(4-aminopiperidin-1-yl)-4-chlorobenzoyl]-2-ethylpiperazin-1-yl]-5-(2-ethoxypyridin-3-yl)benzamide]"
6,< 10 nM,"CCOc1ncccc1-c1ccc(N2CCN(C(=O)C3(C(F)(F)F)CCCC3)C[C@H]2CC)c(C(=O)NC[C@@H]2CCCN2C)n1 [Compound 1-332, 2′-ethoxy-5-[(2R)-2-ethyl-4-[1-(trifluoromethyl)cyclopentanecarbonyl]piperazin-1-yl]-N-{[(2S)-1-methylpyrrolidin-2-yl]methyl}-[2,3′-bipyridine]-6-carboxamide]"
7,10 to 100 nM,"CC[C@@H]1CN(C(=O)c2ccc(C(F)(F)F)cc2Cl)CCN1c1ccc(-c2ccccc2C(=O)OC)cc1C(=O)NCCN [Compound 1-19, methyl (R)-3′-((2-aminoethyl)carbamoyl)-4′-(4-(2-chloro-4-(trifluoromethyl)benzoyl)-2-ethylpiperazin-1-yl)-[1,1′-biphenyl]-2-carboxylate]"
8,< 10 nM,"CCOc1ncccc1-c1ccc(N2CCN(C(=O)c3ccc(C4CC4)cc3C)C[C@H]2CC)c(C(=O)NCCN)c1 [Compound 1-88, N-(2-aminoethyl)-2-[(2R)-4-(4-cyclopropyl-2-methylbenzoyl)-2-ethylpiperazin-1-yl]-5-(2-ethoxypyridin-3-yl)benzamide]"
9,< 10 nM,"CCOc1ncccc1-c1ccc(N2CCN(C(=O)O[C@@H](c3ccccc3)C(F)(F)F)C[C@H]2CC)c(C(=O)N[C@@H]2CCNC2)n1 [Compound 1-377, (1S)-2,2,2-trifluoro-1-phenylethyl (3R)-4-(2′-ethoxy-6-{[(3R)-pyrrolidin-3-yl]carbamoyl}-[2,3′-bipyridin]-5-yl)-3-ethylpiperazine-1-carboxylate]"
10,< 10 nM,"CCOc1ccccc1-c1ccc(N2CCN(C(=O)n3ccc4cccc(C(F)(F)F)c43)C[C@H]2CC)c(C(=O)N[C@@H]2CCN(C)C2)n1 [Compound 1-437, 6-(2-ethoxyphenyl)-3-[(2R)-2-ethyl-4-[7-(trifluoromethyl)-1H-indole-1l-carbonyl]piperazin-1-yl]-N-[(3R)-1-methylpyrrolidin-3-yl]pyridine-2-carboxamide]"
11,< 10 nM,"CCOc1ncccc1-c1ccc(N2CCN(C(=O)c3ccc(Cl)cc3C(F)(F)F)C[C@H]2CC)c(C(=O)N[C@@H]2CCCNC2)c1 [Compound 1-99, 2-[(2R)-4-[4-chloro-2-(trifluoromethyl)benzoyl]-2-ethylpiperazin-1-yl]-5-(2-ethoxypyridin-3-yl)-N-[(3R)-piperidin-3-yl]benzamide]"
12,< 10 nM,"CCOc1ncccc1-c1ccc(N2CCN(C(=O)c3ccc(OC)nc3C(F)(F)F)C[C@H]2CC)c(C(=O)N[C@@H]2CCN(C)C2)n1 [Compound 1-239, 2′-ethoxy-5-[(2R)-2-ethyl-4-[6-methoxy-2-(trifluoromethyl)pyridine-3-carbonyl]piperazin-1-yl]-N-[(3R)-1-methylpyrrolidin-3-yl]-[2,3′-bipyridine]-6-carboxamide]"
13,< 10 nM,"CCOc1ncccc1-c1ccc(N2CCN(C(=O)c3ccc(F)cc3C(F)(F)F)C[C@H]2CC)c(C(=O)N[C@@H]2CCNC2)n1 [Compound 1-266, 2′-ethoxy-5-[(2R)-2-ethyl-4-[4-fluoro-2-(trifluoromethyl)benzoyl]piperazin-1-yl]-N-[(3R)-pyrrolidin-3-yl]-[2,3′-bipyridine]-6-carboxamide]"
14,< 10 nM,"CCOc1ccc(C(=O)N2CCN(c3ccc(-c4cccnc4OCC)nc3C(=O)N[C@@H]3CCN(C)C3)[C@H](CC)C2)c(C(F)(F)F)n1 [Compound 1-243, 2′-ethoxy-5-[(2R)-4-[6-ethoxy-2-(trifluoromethyl)pyridine-3-carbonyl]-2-ethylpiperazin-1-yl]-N-[(3R)-1-methylpyrrolidin-3-yl]-[2,3′-bipyridine]-6-carboxamide]"
15,< 10 nM,"CCOc1ncccc1-c1ccc(N2CCN(C(=O)O[C@H](c3ccccc3)C(F)(F)F)C[C@H]2CC)c(C(=O)N[C@@H]2CCNC2)n1 [Compound 1-351, (1R)-2,2,2-trifluoro-1-phenylethyl (3R)-4-(2′-ethoxy-6-{[(3R)-pyrrolidin-3-yl]carbamoyl}-[2,3′-bipyridin]-5-yl)-3-ethylpiperazine-1-carboxylate]"
16,< 10 nM,"CCOc1ncccc1-c1ccc(N2CCN(C(=O)c3ccc(F)cc3Cl)C[C@H]2CC)c(C(=O)NCCN)c1 [Compound 1-38, N-(2-aminoethyl)-2-[(2R)-4-(2-chloro-4-fluorobenzoyl)-2-ethylpiperazin-1-yl]-5-(2-ethoxypyridin-3-yl)benzamide]"
17,< 10 nM,"CCOc1ncccc1-c1ccc(N2CCN(C(=O)c3ccc(Cl)cc3C(F)(F)F)C[C@H]2CC)c(C(=O)N[C@@H]2CCN(C)C2)c1F [Compound 1-199, 6-[(2R)-4-[4-chloro-2-(trifluoromethyl)benzoyl]-2-ethylpiperazin-1-yl]-3-(2-ethoxypyridin-3-yl)-2-fluoro-N-[(3R)-1-methylpyrrolidin-3-yl]benzamide]"
18,< 10 nM,"CCOc1ccc(C(=O)N2CCN(c3ccc(-c4cccnc4OCC)nc3C(=O)NC3CN(C)C3)[C@H](CC)C2)c(C(F)(F)F)n1 [Compound 1-233, 2′-ethoxy-5-[(2R)-4-[6-ethoxy-2-(trifluoromethyl)pyridine-3-carbonyl]-2-ethylpiperazin-1-yl]-N-(1-methylazetidin-3-yl)-[2,3′-bipyridine]-6-carboxamide]"
19,< 10 nM,"CCOc1ncccc1-c1ccc(N2CCN(C(=O)C3(CC(F)F)CCC3)C[C@H]2CC)c(C(=O)N[C@@H]2CCNC2)n1 [Compound 1-328, 5-[(2R)-4-[1-(2,2-difluoroethyl)cyclobutanecarbonyl]-2-ethylpiperazin-1-yl]-2′-ethoxy-N-[(3R)-pyrrolidin-3-yl]-[2,3′-bipyridine]-6-carboxamide]"
20,< 10 nM,"CCOc1ccccc1-c1ccc(N2CCN(C(=O)n3ccc4cc(F)cc(Cl)c43)C[C@H]2CC)c(C(=O)N[C@@H]2CCN(C)C2)n1 [Compound 1-430, 3-[(2R)-4-(7-chloro-5-fluoro-1H-indole-1-carbonyl)-2-ethylpiperazin-1-yl]-6-(2-ethoxyphenyl)-N-[(3R)-1-methylpyrrolidin-3-yl]pyridine-2-carboxamide]"
21,< 10 nM,"CCOc1ncccc1-c1ccc(N2CCN(C(=O)N3CCC[C@H]3c3ccccc3)C[C@H]2CC)c(C(=O)N[C@@H]2CCNC2)n1 [Compound 1-345, 2′-ethoxy-5-[(2R)-2-ethyl-4-[(2S)-2-phenylpyrrolidine-1-carbonyl]piperazin-1-yl]-N-[(3R)-pyrrolidin-3-yl]-[2,3′-bipyridine]-6-carboxamide]"
22,< 10 nM,"CCOc1ncccc1-c1ccc(N2CCN(C(=O)c3ccc(OC)cc3C(F)(F)F)C[C@H]2CC)c(C(=O)NC2CN(C)C2)c1F [Compound 1-203, 3-(2-ethoxypyridin-3-yl)-6-[(2R)-2-ethyl-4-[4-methoxy-2-(trifluoromethyl)benzoyl]piperazin-1-yl]-2-fluoro-N-(1-methylazetidin-3-yl)benzamide]"
23,< 10 nM,"CCOc1ccccc1-c1ccc(N2CCN(C(=O)c3ccc(OC)nc3C(F)(F)F)C[C@H]2CC)c(C(=O)N[C@@H]2CCNC2)n1 [Compound 1-254, 6-(2-ethoxyphenyl)-3-[(2R)-2-ethyl-4-[6-methoxy-2-(trifluoromethyl)pyridine-3-carbonyl]piperazin-1-yl]-N-[(3R)-pyrrolidin-3-yl]pyridine-2-carboxamide]"
24,< 10 nM,"CCOc1ncccc1-c1ccc(N2CCN(C(=O)c3ccc(OC)cc3C(F)(F)F)C[C@H]2CC)c(C(=O)NCCNC)c1F [Compound 1-155, 3-(2-ethoxypyridin-3-yl)-6-[(2R)-2-ethyl-4-[4-methoxy-2-(trifluoromethyl)benzoyl]piperazin-1-yl]-2-fluoro-N-[2-(methylamino)ethyl]benzamide]"

row,SMILES,Ki
1,"CCOc1ncccc1-c1ccc(N2CCN(C(=O)C3(C(F)(F)F)CCC3)C[C@H]2CC)c(C(=O)N[C@@H]2CN3CCC2CC3)n1 [Compound 1-411, N-[(3S)-1-azabicyclo[2.2.2]octan-3-yl]-2′-ethoxy-5-[(2R)-2-ethyl-4-[1-(trifluoromethyl)cyclobutanecarbonyl]piperazin-1-yl]-[2,3′-bipyridine]-6-carboxamide]",< 10 nM

# Source: patent publication US10981894B2, “Melanocortin subtype-2 receptor (MC2R) antagonists and uses thereof” (Crinetics Pharmaceuticals, Inc., priority 2018, dated 2021)
